{
  "source": "patent US11045449B2",
  "about": "“3-(5-fluoroindolyl)-4-arylmaleimide compounds and their use in tumor treatment” (JOHANNES GUTENBERG-UNIVERSITÄT MAINZ, priority 2015, dated 2021)",
  "key": {"[1]": {"assay": "metabolic conversion in rat liver microsomes", "type": "in vitro ADME", "details": "40 μM compound, 37° C., pH 7.4, RP-HPLC-MS/MS", "experimental": "In a further experiment the metabolic conversion of compounds (Ia) and (IIa) was evaluated according to the following procedure:\nThe test compounds were incubated in the reaction mixture given below with rat liver microsomes (Corning). For this purpose the reaction mixture (components 1-5, see below) was preincubated for 10 minutes at 37° C. The reaction was started with the addition of 10 μl of the test compound followed by incubation at 37° C. for 0-300 minutes, respectively. At each time point, 50 μl of the mixture were removed, added to 250 μl of ice cold acetonitrile and vortexed immediately. After centrifugation, the acetonitrile solution was analyzed by RP-HPLC-MS/MS system.\n1. Magnesiumchloride hexahydrate 50 μl\n2. Glucose-6-phosphate 50 μl\n4. Glucose-6-phosphate-dehydrogenase: 10 μl\n6. Compounds: 40 μM (10 μl of 4 mM solution in ethanol)\nTotal volume: 1000 μl in 0.1 M Trizma-buffer (pH 7.4 at 37° C.)\nAcquity UPLC®-Quattro Premier XE (MS) system by Waters\nColumn: BEH C18, 2.1×50 mm, 1.2 μm pore diameter, Waters\nSolvent A: H2O, NH4-formiate 2 mM+0.1% formic acid\nSolvent B: Methanol, NH4-formiate 2 mM+0.1% formic acid\nFlow regime: from 70% solvent A/30% solvent B to 100% Solvent A in 2.4 minutes, then 70% solvent A/30% solvent B for 0.8 minutes."}, "GSK-3β": {"target": "GSK-3β (Homo sapiens, UniProt P49841)", "sequence (P49841 whole entry)": "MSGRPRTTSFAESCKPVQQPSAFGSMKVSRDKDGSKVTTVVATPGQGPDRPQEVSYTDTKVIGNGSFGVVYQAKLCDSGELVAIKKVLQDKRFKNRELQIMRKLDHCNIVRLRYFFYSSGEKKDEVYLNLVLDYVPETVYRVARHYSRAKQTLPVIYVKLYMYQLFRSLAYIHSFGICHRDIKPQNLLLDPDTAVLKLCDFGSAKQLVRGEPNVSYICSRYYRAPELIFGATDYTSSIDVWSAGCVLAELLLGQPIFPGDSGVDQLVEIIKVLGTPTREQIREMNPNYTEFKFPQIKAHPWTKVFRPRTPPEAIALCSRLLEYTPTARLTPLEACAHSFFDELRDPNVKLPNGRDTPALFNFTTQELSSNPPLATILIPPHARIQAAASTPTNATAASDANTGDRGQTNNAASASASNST", "assay": "KinaseProfiler protein kinase inhibition, GSK-3β", "type": "biochemical", "experimental": "(§1) The effect of test compounds on the activity of the protein kinases GSK-3β, VEGFR-2 and FLT-3 was evaluated based on half maximal inhibitory concentration (IC50) values determined by Eurofins Pharma Discovery Services UK Limited, Gemini Crescent, Dundee Technology Park, Dundee, DD2 1SW (KinaseProfiler™). Detailed information can be found at: http://www.eurofins.com/pharma-services/pharma-discovery-services/services/in-vitro-pharmacology/kinases/biochemical.aspx. The assays are also described in Biochem. J. (2013) 451, 313-328."}, "FLT-3": {"target": "T1, FLT-3 (Homo sapiens, UniProt P36888)", "T1 construct": "purchased Eurofins Pharma Discovery Services UK Limited (KinaseProfiler)", "T1 sequence (P36888 27-993)": "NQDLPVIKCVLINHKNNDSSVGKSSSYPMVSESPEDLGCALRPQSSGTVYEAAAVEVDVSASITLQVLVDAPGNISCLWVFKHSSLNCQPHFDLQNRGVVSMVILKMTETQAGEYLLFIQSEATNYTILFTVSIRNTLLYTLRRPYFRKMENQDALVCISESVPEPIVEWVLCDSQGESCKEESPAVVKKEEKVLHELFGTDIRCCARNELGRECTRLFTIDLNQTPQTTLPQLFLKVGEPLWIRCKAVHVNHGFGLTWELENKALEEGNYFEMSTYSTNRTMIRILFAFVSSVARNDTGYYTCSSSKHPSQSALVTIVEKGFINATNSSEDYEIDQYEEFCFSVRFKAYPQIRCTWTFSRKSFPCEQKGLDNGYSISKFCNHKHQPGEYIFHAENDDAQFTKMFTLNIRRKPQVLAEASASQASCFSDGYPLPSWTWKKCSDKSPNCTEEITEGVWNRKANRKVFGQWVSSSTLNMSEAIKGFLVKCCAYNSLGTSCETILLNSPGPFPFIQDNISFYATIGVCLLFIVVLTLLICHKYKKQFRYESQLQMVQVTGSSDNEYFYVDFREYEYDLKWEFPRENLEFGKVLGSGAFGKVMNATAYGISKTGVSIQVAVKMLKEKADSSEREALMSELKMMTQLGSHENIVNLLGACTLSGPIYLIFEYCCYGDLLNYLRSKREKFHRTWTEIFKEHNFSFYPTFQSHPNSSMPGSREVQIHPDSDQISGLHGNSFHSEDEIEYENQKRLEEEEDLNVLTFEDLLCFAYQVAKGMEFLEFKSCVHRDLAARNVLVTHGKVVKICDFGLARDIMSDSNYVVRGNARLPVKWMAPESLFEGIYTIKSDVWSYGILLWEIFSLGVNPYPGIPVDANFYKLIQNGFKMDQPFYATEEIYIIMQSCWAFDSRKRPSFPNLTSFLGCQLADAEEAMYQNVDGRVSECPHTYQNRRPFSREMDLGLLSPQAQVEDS", "assay": "KinaseProfiler protein kinase inhibition, FLT-3", "type": "biochemical", "experimental": "as §1"}, "VEGFR-2": {"target": "T2, VEGFR-2 (Homo sapiens, UniProt P35968)", "T2 construct": "purchased Eurofins Pharma Discovery Services UK Limited (KinaseProfiler)", "T2 sequence (P35968 20-1356)": "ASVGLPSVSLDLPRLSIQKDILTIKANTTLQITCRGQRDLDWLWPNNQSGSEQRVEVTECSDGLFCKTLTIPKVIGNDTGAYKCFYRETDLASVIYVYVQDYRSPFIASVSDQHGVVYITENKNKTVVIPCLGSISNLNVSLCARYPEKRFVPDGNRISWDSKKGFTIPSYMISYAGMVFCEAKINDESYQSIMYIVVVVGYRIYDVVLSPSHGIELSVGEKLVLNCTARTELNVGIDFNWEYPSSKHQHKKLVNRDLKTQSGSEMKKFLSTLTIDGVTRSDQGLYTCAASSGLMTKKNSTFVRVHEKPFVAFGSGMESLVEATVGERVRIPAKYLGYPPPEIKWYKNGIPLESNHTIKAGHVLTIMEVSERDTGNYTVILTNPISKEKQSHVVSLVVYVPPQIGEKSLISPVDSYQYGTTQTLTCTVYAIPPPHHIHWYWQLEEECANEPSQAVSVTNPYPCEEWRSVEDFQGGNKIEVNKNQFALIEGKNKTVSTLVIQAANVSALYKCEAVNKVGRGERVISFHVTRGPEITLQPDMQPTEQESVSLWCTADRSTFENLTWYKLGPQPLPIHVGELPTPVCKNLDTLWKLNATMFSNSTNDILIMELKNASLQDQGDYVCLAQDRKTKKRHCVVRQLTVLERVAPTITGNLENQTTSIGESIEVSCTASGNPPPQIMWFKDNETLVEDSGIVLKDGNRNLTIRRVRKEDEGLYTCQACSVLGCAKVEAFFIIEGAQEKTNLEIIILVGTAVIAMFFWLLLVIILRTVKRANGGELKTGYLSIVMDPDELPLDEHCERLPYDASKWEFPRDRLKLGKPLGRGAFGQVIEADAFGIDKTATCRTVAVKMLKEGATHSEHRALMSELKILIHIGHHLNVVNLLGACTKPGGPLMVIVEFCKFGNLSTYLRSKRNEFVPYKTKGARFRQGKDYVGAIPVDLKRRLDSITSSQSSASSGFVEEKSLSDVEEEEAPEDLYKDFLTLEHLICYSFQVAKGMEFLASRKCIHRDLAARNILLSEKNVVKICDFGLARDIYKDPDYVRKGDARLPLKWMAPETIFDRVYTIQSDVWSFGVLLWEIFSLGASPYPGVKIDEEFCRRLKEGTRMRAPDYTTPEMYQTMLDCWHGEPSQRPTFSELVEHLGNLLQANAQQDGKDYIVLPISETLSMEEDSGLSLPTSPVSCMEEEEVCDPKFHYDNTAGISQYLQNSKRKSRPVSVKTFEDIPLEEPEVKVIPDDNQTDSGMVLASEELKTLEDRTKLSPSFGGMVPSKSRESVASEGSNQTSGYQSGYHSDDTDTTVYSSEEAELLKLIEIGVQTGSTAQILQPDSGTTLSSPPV", "assay": "KinaseProfiler protein kinase inhibition, VEGFR-2", "type": "biochemical", "text": "Detailed information can be found at: http://www.eurofins.com/pharma-services/pharma-discovery-services/services/in-vitro-pharmacology/kinases/biochemical.aspx. The assays are also described in Biochem. J. (2013) 451, 313-328."}, "[2]": {"system": "HT-29 human colon adenocarcinoma cells", "assay": "MTT assay, antiproliferative activity", "type": "cell-based", "details": "HT-29 cells, 3 days exposure, FIG. 3", "text": "Each experiment was done in triplicate."}},
  "note": "Counter-ions that a name gives are not always drawn.",
  "data": [
    {"smiles": "COc1cc(C2=C(c3cn(CCOC(=O)C(N)CC(C)C)c4ccc(F)cc34)C(=O)NC2=O)cc(OC)c1OC", "note": "(stereo not shown) (as salt: salt) [Ia, 2-(3-(2,5-Dioxo-4-(3,4,5-trimethoxyphenyl)-2,5-dihydro-1H-pyrrol-3-yl)-5-fluoro-1H-indol-1-yl)-ethyl-2-amino-4-methylpentanoate]", "values": [
      {"measurement": "melting point", "result": 180, "unit": "°C"}
    ]},
    {"smiles": "COc1cc(C2=C(c3cn(CCOC(=O)C(N)CC(C)C)c4ccccc34)C(=O)NC2=O)cc(OC)c1OC", "note": "(stereo not shown) [IIa, reference compound]", "values": [
      {"measurement": "time until largely metabolized", "setting": "[1]", "result": 2, "unit": "h"}
    ]},
    {"smiles": "COc1cc(C2=C(c3cn(CCCO)c4ccccc34)C(=O)NC2=O)cc(OC)c1OC", "note": "[IIe]", "values": [
      {"measurement": "IC50", "setting": "GSK-3β", "result": 2, "unit": "nM"}
    ]},
    {"smiles": "COc1cc(C2=C(c3cn(CCOC(=O)C(N)CC(C)C)c4ccc(F)cc34)C(=O)NC2=O)cc(OC)c1OC", "note": "(stereo not shown) [Ia, 2-(3-(2,5-Dioxo-4-(3,4,5-trimethoxyphenyl)-2,5-dihydro-1H-pyrrol-3-yl)-5-fluoro-1H-indol-1-yl)-ethyl-2-amino-4-methylpentanoate]", "values": [
      {"measurement": "time until largely metabolized", "setting": "[1]", "result": 1, "unit": "h"}
    ]},
    {"smiles": "COc1cc(C2=C(c3cn(CCO)c4ccc(F)cc34)C(=O)NC2=O)cc(OC)c1OC", "note": "[Ib, 3-(5-fluoro-1-(2-hydroxyethyl)-1H-indol-3-yl)-4-(3,4,5-trimethoxyphenyl)-maleimide]", "values": [
      {"measurement": "IC50", "setting": "FLT-3", "result": 66, "unit": "nM"},
      {"measurement": "IC50", "setting": "VEGFR-2", "result": 79, "unit": "nM"}
    ]},
    {"smiles": "COc1cc(C2=C(c3cn(CCO)c4ccc(F)cc34)C(=O)NC2=O)cc(OC)c1O", "note": "[Ic, 3-(5-fluoro-1-(2-hydroxyethyl)-1H-indol-3-yl)-4-(4-hydroxy-3,5-dimethoxyphenyl)-maleimide]", "values": [
      {"measurement": "melting point", "result": 233, "unit": "°C"}
    ]},
    {"smiles": "COc1cc(C2=C(c3c[nH]c4ccc(F)cc34)C(=O)NC2=O)cc(OC)c1O", "note": "[Id, 3-(5-fluoro-1H-indol-3-yl)-4-(4-hydroxy-3,5-dimethoxyphenyl)-maleimide]", "values": [
      {"measurement": "antiproliferative activity (viability)", "setting": "[2]", "result": "higher activity as compared to (IId)"}
    ]},
    {"smiles": "COc1cc(C2=C(c3cn(CCCO)c4ccc(F)cc34)C(=O)NC2=O)cc(OC)c1OC", "note": "[If, 3-(5-fluoro-1-(3-hydroxypropyl)-1H-indol-3-yl)-4-(3,4,5-trimethoxyphenyl)-maleimide]", "values": [
      {"measurement": "IC50", "setting": "FLT-3", "result": 84, "unit": "nM"},
      {"measurement": "IC50", "setting": "VEGFR-2", "result": 168, "unit": "nM"}
    ]}
  ]
}
